Patent publication US11040053B2, “Compositions and methods for activating “stimulator of interferon gene”13 dependent signalling” (CHINOOK THERAPEUTICS, INC., priority 2015, dated 2021)
“Also recorded” adds a separate entry of the source.

Experiments:
hSTING HAQ allele = target: T1, hSTING HAQ allele (Homo sapiens, UniProt Q86WV6, G230A/H232R/R293Q/R71H); experiment: IRF-3 inducible secreted luciferase reporter in THP1-Dual cells without digitonin; type: cell-based; conditions: for activity relative to OH reference compound, in words: Table 5 comment, THP1 cells without digitonin
T1 construct: a human monocyte cell line containing the hSTING HAQ allele; host or cells: THP1-Dual cells
T1 sequence (Q86WV6 whole entry R71H/G230A/H232R/R293Q): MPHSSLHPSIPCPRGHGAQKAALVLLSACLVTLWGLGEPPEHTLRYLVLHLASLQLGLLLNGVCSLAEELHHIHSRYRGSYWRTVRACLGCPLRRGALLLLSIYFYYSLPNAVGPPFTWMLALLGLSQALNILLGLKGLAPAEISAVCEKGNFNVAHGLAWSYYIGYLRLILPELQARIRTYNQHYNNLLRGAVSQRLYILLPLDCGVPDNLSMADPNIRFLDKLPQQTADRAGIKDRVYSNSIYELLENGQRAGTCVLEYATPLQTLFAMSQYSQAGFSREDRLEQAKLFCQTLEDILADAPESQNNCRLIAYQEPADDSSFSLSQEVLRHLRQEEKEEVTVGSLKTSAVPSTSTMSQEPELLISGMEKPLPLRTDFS
Summary of the method: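 THP1-Dual cells were exposed for 30 min, washed, and cultured overnight at 37 °C in fresh RPMI/10% FBS. Secreted luciferase in the supernatant was read with QUANTI-Luc as the type I interferon signal. EC50 was taken from a 10-point serial-dilution dose-response curve.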

hSTING(WT) = hSTING(WT) (Homo sapiens, UniProt Q86WV6, H232R); experiment: IFN-β luciferase reporter in HEK293T cells stably expressing hSTING(WT), digitonin permeabilization; conditions: FIGS. 5A-B, 0.1 μM to 100 μM and 6.25 μM CDN
hSTING(WT), sequence (Q86WV6 whole entry H232R): as the sequence (Q86WV6 whole entry R71H/G230A/H232R/R293Q) above, with H71R, A230G, Q293R counted along it
Protocol: 24 hours later, cells were stimulated with native and synthetic CDN derivative molecules using digitonin permeabilization to ensure uniform uptake.
After 20 min, the stimulation mixtures were removed and 200 ul of DMEM media supplemented with 10% (vol/vol) fetal bovine serum, 1% L-Glutamine, and 1% Penicillin/Streptomycin was added. Cells were incubated an additional 6 hours (37° C., 5% CO2) and then cell lysates were prepared and reporter gene activity measured on a Spectramax M3 luminometer using the Dual-Glo Luciferase Assay System (Promega, catalog #E2920) as described by the manufacturer. IFNβ firefly luciferase reporter gene activity was normalized to TK renilla luciferase gene activity and plotted as fold induction over activity in unstimulated cells (mean+/−s.e.m.).

B16.F10 = B16.F10 melanoma mouse model, intra-tumoral injection; type: in vivo, C57BL/6 female mice; conditions: FIG. 15A, IT 10 or 100 μg, three injections, vs HBSS
Protocol: To assess the ability of the fluorinated derivative compounds to promote anti-tumor immunity in diverse murine tumor models, tumor cells were implanted (in 100 μL PBS) subcutaneously on the lower back of 6-8 week old C57BL/6 female mice. Treatments began when tumors reached a volume of approximately 100 mm^3, on approximately day 14 post tumor implantation (see table below for tumor type, number of cells, and day of IT injection). The CDN compounds were administered by IT injection (10 or 100 μg in a total volume of 40 μL HBSS), and repeated every three days for a total of three injections. The compounds 3′3′-RR-(2′F-A)(2′F-A) and 3′3′-RR-(2′F-G)(2′F-A) and control mice given vehicle only (40 μL HBSS) were dosed. Tumors were measured twice weekly.

HAQ allele hSTING = target: T2, HAQ allele hSTING (Homo sapiens, UniProt Q86WV6, G230A/H232R/R293Q); experiment: Differential scanning fluorometry (DSF) binding to purified hSTING HAQ allele; conditions: for binding relative to OH reference compound, in words / binding relative to naturally produced 2′3′-(G)(A), in words: Table 4 comment, HAQ allele hSTING
T2 construct: DNA encoding amino acids 140-379 (amino acid numbering corresponding to Swiss Prot Q86WV6); 6xHIS (N, cleaved yes); SUMO (N, cleaved yes); made in house; host or cells: Rosetta2 (DE3) E. coli
T2 sequence (Q86WV6 140-379 G230A/H232R/R293Q limits assumed): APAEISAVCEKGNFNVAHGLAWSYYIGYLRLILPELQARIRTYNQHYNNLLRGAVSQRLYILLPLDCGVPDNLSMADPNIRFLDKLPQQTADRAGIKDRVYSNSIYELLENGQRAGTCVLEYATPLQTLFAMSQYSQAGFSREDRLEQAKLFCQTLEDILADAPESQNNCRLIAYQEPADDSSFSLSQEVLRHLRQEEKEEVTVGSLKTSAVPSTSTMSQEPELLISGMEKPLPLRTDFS

[1] = target: T3, reference (REF) STING allele (Homo sapiens, UniProt Q86WV6); experiment: Cytokine transcript induction (qRT-PCR) in STING^REF/REF hPBMCs; type: cell-based; conditions: for relative normalized IFNβ expression, in words: FIGS. 8A-B, 2 hours stimulation, 100 μM to 0.1 μM; for cytokine responses (IFNβ, TNFα, IL-6, IFNγ, IL-12p40 expression), in words: FIGS. 9B-13B, 2 hours and 6 hours stimulation
T3 construct: endogenous in cells
T3 sequence (Q86WV6 whole entry): as the sequence (Q86WV6 whole entry R71H/G230A/H232R/R293Q) above, with H71R, A230G, R232H, Q293R counted along it
Protocol: The induction of type I interferon was measured in human primary blood mononuclear cells (hPBMCs) to evaluate the potency of mono- or di-F-CDN compounds as described herein. hPBMCs from two unique donors were used: one donor was homozygous for the wild type (WT) STING allele (STING^WT/WT) and the other donor was homozygous for the so-called reference (REF) STING allele (STING^REF/REF). The STING genotype of these donors was determined by PCR amplification and sequencing: genomic DNA was isolated from 10^4 hPBMCs using Quick Extract DNA Extraction Solution (Epicentre) and was used to amplify regions of exon 3, 6, and 7 of the human STING gene.
Cells were incubated at 37° C., 5% CO2 with concentrations ranging from 100 μM to 0.1 μM of each CDN. After 2 hours (FIGS. 7 and 8) or 2 hours and 6 hours (FIGS. 9-13) stimulation, cells were harvested by centrifugation and washed once with phosphate-buffered saline. Cellular RNA was isolated using the Aurum Total RNA 96 Kit and cDNA was synthesized using the iScript cDNA Synthesis Kit. Target and reference gene expression was assessed by real-time qRT-PCR using PrimePCR probe assays and the CFX96 gene cycler (all reagents and equipment from BioRad). Normalized IFNβ expression was expressed relative to untreated cells. Target genes included type I interferon (IFNβ), Th1-associated cytokines (IFNγ, IL-12p40) and NF-kB dependent inflammatory cytokines (TNFα, IL-6). Reference genes included GUSB alone (FIGS. 7 and 8) or GUSB and HSP90AB1 (FIGS. 9-13).

hSTING(REF) = hSTING(REF) (Homo sapiens, UniProt Q86WV6); experiment: Differential scanning fluorometry (DSF) binding to purified hSTING REF allele; parameters: DNA encoding amino acids 140-379 (amino acid numbering corresponding to Swiss Prot Q86WV6); 6xHIS (N, cleaved yes); SUMO (N, cleaved yes); made in house; host or cells: Rosetta2 (DE3) E. coli; conditions: for Tm shift compared with non fluorine substituted compounds and 2′3′-(G)(A), in words: FIG. 2, hSTING (REF); for binding relative to OH reference compound, in words / binding relative to naturally produced 2′3′-(G)(A), in words: Table 4 comment, REF allele hSTING
hSTING(REF), sequence (Q86WV6 140-379): as the sequence (Q86WV6 140-379 G230A/H232R/R293Q limits assumed) above, with A91G, R93H, Q154R counted along it

[2] = listed as 3′3′-RR-(2′F-G)(2′F-A)
[3] = listed as 3′3′-RR-(2′F-A)(2′F-A)
[4] = DSF, 1 mg/ml STING AA140-379, ligand 1 mM

| Structure (SMILES) | activity relative to OH reference compound, in words (hSTING HAQ allele) | IFNβ luciferase reporter induction by hSTING(WT), in words (hSTING(WT); [2]) | tumor volume, in words (B16.F10) | binding relative to OH reference compound, in words (HAQ allele hSTING) | binding relative to naturally produced 2′3′-(G)(A), in words (HAQ allele hSTING) | IFNβ transcript level compared to cells similarly dosed with 2′3′-(G)(A) [1] | relative normalized IFNβ expression, in words [1, 2] | cytokine responses (IFNβ, TNFα, IL-6, IFNγ, IL-12p40 expression), in words [1] | Tm shift compared with non fluorine substituted compounds and 2′3′-(G)(A), in words (hSTING(REF)) | binding relative to OH reference compound, in words (hSTING(REF)) | binding relative to naturally produced 2′3′-(G)(A), in words (hSTING(REF)) | EC50 (hSTING HAQ allele; without digitonin in THP1 cells (HAQ allele)) | IFNβ luciferase reporter induction by hSTING(WT), in words (hSTING(WT); [3]) | tumor volume, in words (B16.F10; [3]) | hSTING Tm Shift HAQ (HAQ allele hSTING; [4]) | relative normalized IFNβ expression, in words [1, 3] | hSTING Tm Shift REF (hSTING(REF); [4]) |
| --- | --- | --- | --- | --- | --- | --- | --- | --- | --- | --- | --- | --- | --- | --- | --- | --- | --- |
| Nc1nc2c(ncn2[C@@H]2O[C@@H]3CO[P@@](=O)(S)O[C@H]4[C@@H](F)[C@H](n5cnc6c(N)ncnc65)O[C@@H]4CO[P@@](=O)(S)O[C@H]3[C@H]2F)c(=O)[nH]1 (stereo in doubt) [Compound 14, 2-Amino-9-((2R,3R,3aR,5R,7aR,9R,10R,10aR,12R,14aR)-9-(6-amino-9H-purin-9-yl)-3,10-difluoro-5,12-dimercapto-5,12-dioxidooctahydro-2H,7H-difuro [3,2-d:3′,2′-j][1,3,7,9]tetraoxa[2,8]diphosphacyclododecin-2-yl)-1,9-dihydro-6H-purin-6-one] | improved activity | strongly induced IFNβ reporter activity by hSTING(WT); also recorded: more potently induced IFNβ reporter activity by hSTING(WT) than the compound 3′3′-(G)(A) | induced significant tumor inhibition as compared to HBSS | improved binding | improved binding | 12- to 70 fold | stimulated dose-dependent production of IFNβ transcript; also recorded: more potent inducers of IFNβ transcript STING^REF/REF hPBMCs than 2′3′-(G)(A); also recorded: extremely potent stimulator of the REF STING allele | induced more robust dose-dependent responses of each of the cytokines tested | increased Tm shift | improved binding | improved binding |  |  |  |  |  |  |
| Nc1ncnc2c1ncn2[C@@H]1O[C@@H]2CO[P@@](=O)(S)O[C@H]3[C@@H](F)[C@H](n4cnc5c(N)ncnc54)O[C@@H]3CO[P@@](=O)(S)O[C@H]2[C@H]1F [Compound 6, (2R,3R,3aR,5R,7aR,9R,10R,10aR,12R,14aR)-2,9-bis(6-amino-9H-purin-9-yl)-3,10-difluoro-5,12-dimercaptooctahydro-2H,7H-difuro[3,2-d:3′,2′-j][1,3,7,9]tetraoxa[2,8]diphosphacyclododecine 5,12-dioxide] | improved activity |  |  | improved binding | improved binding |  |  | induced more robust responses of all of the cytokines tested | increased Tm shift | improved binding | improved binding | 19 µM | induced higher levels of IFNβ reporter activity by hSTING(WT) than the non-fluorine substituted compounds; also recorded: stimulated higher levels of IFNβ reporter activity by hSTING(WT) when compared to the endogenous cellular ligand 2′3′-(G)(A) | induced significant tumor inhibition as compared to HBSS; also recorded: complete tumor regression at the 100 μg dose | 32.4 °C | stimulated dose-dependent production of IFNβ transcript; also recorded: more potent inducers of IFNβ transcript STING^REF/REF hPBMCs than 2′3′-(G)(A) | 9.1 °C |
